Reference: patent publication US12180193B2, “Accelerating fibrosarcoma protein degrading compounds and associated methods of use” (Arvinas Operations, Inc., priority 2020, dated 2024)

Legend:
BRAF G466V = target: T1, BRAF G466V (Homo sapiens, UniProt P15056, G466V); assay: Cellular assay of target protein degradation, T-Rex 293 cells stably transfected with HA-BRAF G466V (HA immunofluorescence, high content imaging); type: cell-based; details: T-Rex 293 HA-BRAF G466V; for DC50: half maximal degradation, read-out: BRaf G466V DC50; for Dmax: maximum degradation observed
T1 construct: expressed in transfected cells
How it was run: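 Doxycycline-induced (0.75 ng/mL) cells treated 24 h at 37 °C with compound from 30 nM to 3 pM (0.1% DMSO). After fixation and permeabilisation, HA-tagged BRAF G466V immunostained and quantified by high-content imaging. DC50 and Dmax (percent of control) derived.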

BRAF V600E = target: T2, BRAF V600E (Homo sapiens, UniProt P15056, V600E); assay: Cellular assay of target protein degradation, T-Rex 293 cells stably transfected with HA-BRAF_V600E (HA immunofluorescence, high content imaging); type: cell-based; details: T-Rex 293 HA-BRAF V600E; for DC50: half maximal degradation, read-out: BRaf V600E DC50; for Dmax: maximum degradation observed
T2 construct: expressed in transfected cells
How it was run: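 Doxycycline-induced (1 ng/mL) T-Rex 293 cells expressing HA-BRAF V600E treated 24 h at 37 °C with compound at 1 μM to 0.1 nM final in 0.1% DMSO. Remaining HA-tagged protein quantified by fixed-cell anti-HA immunofluorescence and high-content imaging; DC50 and Dmax (% of control) derived.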

T2 sequence (P15056 whole entry V600E): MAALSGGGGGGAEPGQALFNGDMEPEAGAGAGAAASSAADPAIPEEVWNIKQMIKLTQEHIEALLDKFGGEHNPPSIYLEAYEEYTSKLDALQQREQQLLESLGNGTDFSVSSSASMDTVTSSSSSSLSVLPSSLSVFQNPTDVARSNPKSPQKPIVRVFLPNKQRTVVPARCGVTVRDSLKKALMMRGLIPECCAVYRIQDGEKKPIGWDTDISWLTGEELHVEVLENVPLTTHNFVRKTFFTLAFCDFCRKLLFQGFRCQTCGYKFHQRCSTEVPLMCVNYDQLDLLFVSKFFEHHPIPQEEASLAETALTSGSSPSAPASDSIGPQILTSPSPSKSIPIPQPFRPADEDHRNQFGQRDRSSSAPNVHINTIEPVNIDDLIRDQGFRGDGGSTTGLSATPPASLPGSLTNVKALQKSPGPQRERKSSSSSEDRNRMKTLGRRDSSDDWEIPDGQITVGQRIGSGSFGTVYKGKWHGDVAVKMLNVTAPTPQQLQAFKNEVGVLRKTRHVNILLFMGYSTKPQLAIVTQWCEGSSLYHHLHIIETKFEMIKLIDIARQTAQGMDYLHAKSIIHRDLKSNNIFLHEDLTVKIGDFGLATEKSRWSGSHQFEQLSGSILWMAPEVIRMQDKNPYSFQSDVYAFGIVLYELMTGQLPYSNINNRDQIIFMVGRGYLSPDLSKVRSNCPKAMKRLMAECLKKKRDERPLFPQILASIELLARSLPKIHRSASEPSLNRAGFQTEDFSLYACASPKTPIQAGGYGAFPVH
T1 sequence (P15056 whole entry G466V): as the sequence (P15056 whole entry V600E) above, with G466V, E600V counted along it

DC50 (BRAF G466V) [µM]	Dmax (BRAF G466V) [%]	DC50 (BRAF V600E) [µM]	Dmax (BRAF V600E) [%]	SMILES
0.001 to 0.01	35 to 70	0.005 to 0.05	35 to 70	O=C1CC[C@H](N2Cc3cc(N4CCC(CN5CCN(c6ccc(-c7cnc8[nH]cc(C(=O)c9c(F)ccc(NS(=O)(=O)N%10CC[C@@H](F)C%10)c9F)c8c7)cc6)CC5)CC4)c(F)cc3C2=O)C(=O)N1 [Compound 40, (3R)-N-{3-[5-(4-{4-[(1-{2-[(3S)-2,6-dioxopiperidin-3-yl]-6-fluoro-1-oxo-2,3-dihydro-1H-isoindol-5-yl}piperidin-4-yl)methyl]piperazin-1-yl}phenyl)-1H-pyrrolo[2,3-b]pyridine-3-carbonyl]-2,4-difluorophenyl}-3-fluoropyrrolidine-1-sulfonamide]
0.001 to 0.01	> 70	0.005 to 0.05	35 to 70	O=C1CC[C@H](NC(=O)N2CCCc3c(C4CCN(CC5CCN(c6ccc(-c7cnc8[nH]cc(C(=O)c9c(F)ccc(NS(=O)(=O)N%10CC[C@@H](F)C%10)c9F)c8c7)cc6)CC5)CC4)ccnc32)C(=O)N1 [Compound 366, 5-(1-{[1-(4-{3-[2,6-difluoro-3-({[(3R)-3-fluoropyrrolidin-1-yl]sulfonyl}amino)benzoyl]-1H-pyrrolo[2,3-b]pyridin-5-yl}phenyl)piperidin-4-yl]methyl}piperidin-4-yl)-N-[(3S)-2,6-dioxopiperidin-3-yl]-1,2,3,4-tetrahydro-1,8-naphthyridine-1-carboxamide]
< 0.001	35 to 70	0.005 to 0.05	35 to 70	O=C1CCN(c2ccc(C3CCN(CC4CCN(c5ccc(-c6cnc7[nH]cc(C(=O)c8c(F)ccc(NS(=O)(=O)N9CC[C@@H](F)C9)c8F)c7c6)cc5)CC4)CC3)cc2F)C(=O)N1 [Compound 140, (3R)-N-[3-(5-{4-[4-({4-[4-(2,4-dioxo-1,3-diazinan-1-yl)-3-fluorophenyl]piperidin-1-yl}methyl)piperidin-1-yl]phenyl}-1H-pyrrolo[2,3-b]pyridine-3-carbonyl)-2,4-difluorophenyl]-3-fluoropyrrolidine-1-sulfonamide]
< 0.001	35 to 70	< 0.005	< 35	O=C1CC[C@@H](N2Cc3cc(N4C[C@H]5CN(CC6CCN(c7ccc(-c8cnc9[nH]cc(C(=O)c%10c(F)ccc(NS(=O)(=O)N%11CC[C@@H](F)C%11)c%10F)c9c8)cc7)CC6)C[C@H]5C4)ccc3C2=O)C(=O)N1 [Compound 58, (3R)-N-(3-{5-[4-(4-{[(3aR,6aS)-5-{2-[(3R)-2,6-dioxopiperidin-3-yl]-1-oxo-2,3-dihydro-1H-isoindol-5-yl}-octahydropyrrolo [3,4-c]pyrrol-2-yl]methyl}piperidin-1-yl)phenyl]-1H-pyrrolo[2,3-b]pyridine-3-carbonyl}-2,4-difluorophenyl)-3-fluoropyrrolidine-1-sulfonamide]
0.001 to 0.01	35 to 70	0.05 to 0.5	35 to 70	O=C1CCC(N2Cc3cc(N4CC(CC5CCN(c6ccc(-c7cnc8[nH]cc(C(=O)c9c(F)ccc(NS(=O)(=O)N%10CC[C@@H](F)C%10)c9F)c8c7)cc6)CC5)C4)ccc3C2=O)C(=O)N1 (stereo partly drawn) [Compound 306, (3R)-N-[3-(5-{4-[4-({1-[2-(2,6-dioxopiperidin-3-yl)-1-oxo-2,3-dihydro-1H-isoindol-5-yl]azetidin-3-yl}methyl)piperidin-1-yl]phenyl}-1H-pyrrolo[2,3-b]pyridine-3-carbonyl)-2,4-difluorophenyl]-3-fluoropyrrolidine-1-sulfonamide]
0.001 to 0.01	> 70	0.005 to 0.05	35 to 70	COc1cc(N2CC3(CN(CC4CCN(c5ccc(-c6cnc7[nH]cc(C(=O)c8c(F)ccc(NS(=O)(=O)N9CC[C@@H](F)C9)c8F)c7c6)cc5)CC4)C3)C2)cc2c1C(=O)N([C@H]1CCC(=O)NC1=O)C2 [Compound 249, (3R)-N-{3-[5-(4-{4-[(6-{2-[(3S)-2,6-dioxopiperidin-3-yl]-7-methoxy-1-oxo-2,3-dihydro-1H-isoindol-5-yl}-2,6-diazaspiro[3.3]heptan-2-yl)methyl]piperidin-1-yl}phenyl)-1H-pyrrolo [2,3-b]pyridine-3-carbonyl]-2,4-difluorophenyl}-3-fluoropyrrolidine-1-sulfonamide]
0.01 to 0.03	> 70	> 0.5	–	O=C1CCC(N2Cc3cc(N4CCC(N5CCCC56CN(c5ccc(-c7cnc8[nH]cc(C(=O)c9c(F)ccc(NS(=O)(=O)N%10CC[C@@H](F)C%10)c9F)c8c7)cc5)C6)CC4)ccc3C2=O)C(=O)N1 (stereo partly drawn) [Compound 66, (3R)-N-(3-{5-[4-(5-{1-[2-(2,6-dioxopiperidin-3-yl)-1-oxo-2,3-dihydro-1H-isoindol-5-yl]piperidin-4-yl}-2,5-diazaspiro[3.4]octan-2-yl)phenyl]-1H-pyrrolo[2,3-b]pyridine-3-carbonyl}-2,4-difluorophenyl)-3-fluoropyrrolidine-1-sulfonamide]

More lines, now with the values behind:

SMILES	DC50 (BRAF G466V) [µM]	Dmax (BRAF G466V) [%]	DC50 (BRAF V600E) [µM]	Dmax (BRAF V600E) [%]
COc1cc(N2CC3(CN(CC4CCN(c5ncc(-c6cnc7[nH]cc(C(=O)c8c(F)ccc(NS(=O)(=O)N9CC[C@@H](F)C9)c8F)c7c6)cn5)CC4)C3)C2)cc2c1C(=O)N(C1CCC(=O)NC1=O)C2 (stereo partly drawn) [Compound 134, (3R)-N-[3-(5-{2-[4-({6-[2-(2,6-dioxopiperidin-3-yl)-7-methoxy-1-oxo-2,3-dihydro-1H-isoindol-5-yl]-2,6-diazaspiro[3.3]heptan-2-yl}methyl)piperidin-1-yl]pyrimidn-5-yl}-1H-pyrrolo[2,3-b]pyridine-3-carbonyl)-2,4-difluorophenyl]-3-fluoropyrrolidine-1-sulfonamide]	< 0.001	> 70	0.005 to 0.05	35 to 70
O=C1CC[C@H](N2Cc3cc(N4CCC(CN5CCN(C6(c7ncc(-c8cnc9[nH]cc(C(=O)c%10c(F)ccc(NS(=O)(=O)N%11CC[C@@H](F)C%11)c%10F)c9c8)cn7)CC6)CC5)CC4)ccc3C2=O)C(=O)N1 [Compound 201, (3R)-N-[3-[5-[2-[1-[4-[[1-[2-[(3S)-2,6-dioxo-3-piperidyl]-1-oxo-isoindolin-5-yl]-4-piperidyl]methyl]piperazin-1-yl]cyclopropyl]pyrimidin-5-yl]-1H-pyrrolo[2,3-b]pyridine-3-carbonyl]-2,4-difluoro-phenyl]-3-fluoro-pyrrolidine-1-sulfonamide]	0.001 to 0.01	35 to 70	0.005 to 0.05	< 35
O=C1CC[C@@H](N2Cc3cc(N4CC(CN5CCN(C6(c7ncc(-c8cnc9[nH]cc(C(=O)c%10c(F)ccc(NS(=O)(=O)N%11CC[C@@H](F)C%11)c%10F)c9c8)cn7)CC6)CC5)C4)ccc3C2=O)C(=O)N1 [Compound 286, (3R)-N-(3-{5-[2-(1-{4-[(1-{2-[(3R)-2,6-dioxopiperidin-3-yl]-1-oxo-2,3-dihydro-1H-isoindol-5-yl}azetidin-3-yl)methyl]piperazin-1-yl}cyclopropyl)pyrimidin-5-yl]-1H-pyrrolo[2,3-b]pyridine-3-carbonyl}-2,4-difluorophenyl)-3-fluoropyrrolidine-1-sulfonamide]	0.001 to 0.01	35 to 70	0.05 to 0.5	35 to 70
O=C1CC[C@H](N2Cc3cc(N4CCC(CN5CCN(C6(c7ccc(-c8cnc9[nH]cc(C(=O)c%10c(F)ccc(NS(=O)(=O)N%11CC[C@@H](F)C%11)c%10F)c9c8)cn7)CC6)CC5)CC4)ccc3C2=O)C(=O)N1 [Compound 288, (3R)-N-(3-{5-[6-(1-{4-[(1-{2-[(3S)-2,6-dioxopiperidin-3-yl]-1-oxo-2,3-dihydro-1H-isoindol-5-yl}piperidin-4-yl)methyl]piperazin-1-yl}cyclopropyl)pyridin-3-yl]-1H-pyrrolo[2,3-b]pyridine-3-carbonyl}-2,4-difluorophenyl)-3-fluoropyrrolidine-1-sulfonamide]	> 0.03	> 70	0.05 to 0.5	35 to 70
COc1cc(N2CC3(C2)CN(CC2CCN(c4ccc(-c5cnc6[nH]cc(C(=O)c7c(F)ccc(NS(=O)(=O)N8CC[C@@H](F)C8)c7F)c6c5)cc4)CC2)[C@H]3C)cc2c1C(=O)N(C1CCC(=O)NC1=O)C2 (stereo partly drawn) [Compound 12, (3R)-N-(3-{5-[4-(4-{[(1S)-6-[2-(2,6-dioxopiperidin-3-yl)-7-methoxy-1-oxo-2,3-dihydro-1H-isoindol-5-yl]-1-methyl-2,6-diazaspiro[3.3]heptan-2-yl]methyl}piperidin-1-yl)phenyl]-1H-pyrrolo[2,3-b]pyridine-3-carbonyl}-2,4-difluorophenyl)-3-fluoropyrrolidine-1-sulfonamide]	0.001 to 0.01	35 to 70	0.005 to 0.05	> 70
O=C1CC[C@H](N2Cc3cc(C[C@@H](O)CN4CCN(c5ccc(-c6cnc7[nH]cc(C(=O)c8c(F)ccc(NS(=O)(=O)N9CC[C@@H](F)C9)c8F)c7c6)cc5)CC4)ccc3C2=O)C(=O)N1 [Compound 82, (3R)-N-{3-[5-(4-{4-[(2R)-3-{2-[(3S)-2,6-dioxopiperidin-3-yl]-1-oxo-2,3-dihydro-1H-isoindol-5-yl}-2-hydroxypropyl]piperazin-1-yl}phenyl)-1H-pyrrolo[2,3-b]pyridine-3-carbonyl]-2,4-difluorophenyl}-3-fluoropyrrolidine-1-sulfonamide]	> 0.03	–	0.005 to 0.05	35 to 70
